The text below walks through data of patent publication US20050148553A1, “Use of tigecycline, alone, or in combination with rifampin to treat osteomyelitis and/or septic arthritis” (priority 2003, published 2005).

≈ marks a conversion by molar mass, not a printed value.

Data set [1] is described as follows: Antibiotic levels in rabbit serum and bone by diffusion bioassay. The data set is classed as in vivo, New Zealand white rabbits. As to the method: Normal NZW rabbit serum (Fisher Scientific) and normal, uninfected rabbit tibia bone were used to generate standard curves for tigecycline (Wyeth-Ayerst Research, Pearl River, N.Y.), vancomycin (Abbott Laboratories, Chicago, Ill.), and rifampin (Merrell Pharmaceuticals Inc. Kansas, Mo.). Bioassays were performed with each drug to generate the standard curves for antibiotic concentration in serum and/or tibial bone.
The organism used for the bioassay was Bacillus cereus ATCC11778. Serum standards were prepared using two-fold serial dilutions with either antibiotic to yield concentrations of 25 μg/ml to 0.20 μg/ml drug in Normal NZW rabbit serum. Bone eluate standards were prepared for tigecycline by thoroughly cleaning noninfected rabbit tibias with 70% ethanol in a sterilized fume hood. Each tibia was broken into small chips of approximately 0.5 cm^2 using a grinder. The chips were placed into a sterile, 50 ml conical centrifuge tube and weighed. One milliliter of sterile, 0.9% normal saline was added for each gram of bone chips. The solution was thoroughly vortexed for two minutes. The resulting bone eluate was allowed to shake at 180 rpm in a cold room at 4° C., for 12 hours. The samples were centrifuged at 4000 rpm for 3 minutes prior to assay, to pellet the chips.
The diameter of the zone of growth inhibition around each well was measured, in millimeters. A standard curve was generated for tigecycline concentration in both serum and bone eluate and for vancomycin in serum by plotting the known antibiotic concentration against its resulting zone of inhibition measurement. […]
Serum samples were stored at −70° C. until the bioassay was performed. […] The diameter of the zone of growth inhibition around each well was measured and concentrations of tigecycline were extrapolated from the standard curve.
Peak and trough levels of antibiotic were determined for Groups 2 and 4 at 1 hour (peak) and 12 hour (trough) after the initial antibiotic administration. Antibiotic concentrations were determined by means of a bioassay. […]

The nature of data set [2]: Pharmacokinetics and tolerability of intravenous tigecycline in humans. The data set is classed as in vivo, human.
Data set [3] has as its system Acinetobacter baumannii. Description: Compassionate use study, osteomyelitis patient. To be noted: 50 mg every 12 or 24 hours for two months; within one month. The data set is classed as in vivo, human. As to the method:
The patient was treated with meropenem and tobramycin. […] The patient was then treated with tigecycline for two months with either 50 mg every 12 hours or 50 mg every 24 hours.

In data set [4] the test system is vancomycin resistant E. faecium. The settings on record: cited from earlier work.
Data set [5] can be described thus: Mass balance study, 5 mg/kg intravenous dose. The class given is in vivo, Sprague-Dawley rats. To be noted: male rats.

With `CN(C)c1cc(NC(=O)CNC(C)(C)C)c(O)c2c1C[C@H]1C[C@H]3[C@H](N(C)C)C(O)=C(C(N)=O)C(=O)[C@@]3(O)C(O)=C1C2=O` [Tigecycline], in data set [1] (New Zealand white, rabbit, serum, subcutaneous, uninfected rabbits, 14 mg/kg twice daily, read-out: serum level at 12 hour (trough)), the concentration at 12 h is over 200 ng/mL. Moreover, in data set [1] (infected rabbits, tigecycline 14 mg/kg, vancomycin 30 mg/kg twice daily), the “antibiotic serum levels (peaks and troughs)” value is “above minimum inhibitory concentrations”. Further, in data set [2] (human, in vivo, intravenous, humans), the half-life lay in the range of 40 to 60 h. Besides, the Vd in data set [2] (human, in vivo, intravenous, humans, read-out: volume of distribution at steady state) was 7 to 14 L/kg. Also, the dose tolerated entry in data set [2] (one-hour infusion, human subjects) is “up to 100 mg”; in data set [2] (twice daily, 200 ml infusion over one hour), 25 to 50 mg. The “dose resulting in gastrointestinal intolerance (nausea and vomiting) in all subjects” value in data set [2] (twice daily over nine days, 200 ml infusion over one hour, fed) is listed as at least 75 mg. Besides, the “clinical outcome (MRI)” value in data set [3] is listed as “resolution of the osteomyelitis”. Also, in data set [4], the minimal inhibitory concentration (MIC) was 0.125 µg/mL (≈ 0.213 µM).
As for `CN(C)c1cc(NC(=O)CNC(C)(C)C)c(O)c2c1C[C@H]1C[C@H]3[C@H](N(C)C)C(O)=C(C(N)=O)C(=O)[C@@]3(O)C(O)=C1C2=O` [[^14C]-Tigecycline], the recovery of radioactivity in data set [5] is reported as 89.4±2.50%.
